# Data published in US20050209157A1, “Short bioactive peptides and methods for their use” (priority 2001, published 2005).
# Residues, ends and D or L forms follow the SMILES beside them. No end group written: not given here.
# Key:
# [1] = test system: Pseudomonas aeruginosa ATCC 9027; assay: Antimicrobial assay I, MIC by OD measurement; type: cell-based; details: 37° C. for 24 hours, absorbance 620 nm
# [2] = test system: Staphylococcus aureus ATCC 6538; assay: Antimicrobial assay I, MIC by OD measurement; type: cell-based; details: 37° C. for 24 hours, absorbance 620 nm
# [3] = test system: yeast (Saccharomyces cerevisiae); assay: Antimicrobial assay I, yeast assay in RPMI 1640; type: cell-based; details: RPMI 1640 media
# BMKC = assay: Anti-cancer assay, MTT, LD50; type: cell-based; details: BMKC cloned melanoma line, 24 hours with peptide
# Text: (§1) Numbers are LD50 values (μg/mL).
# H1299 = assay: Anti-cancer assay, MTT, LD50; type: cell-based; details: 24 hours with peptide, lung large cell carcinoma
# Text: as §1
# HeLaS3 = assay: Anti-cancer assay, MTT, LD50; type: cell-based; details: 24 hours with peptide, cervical carcinoma
# Text: as §1
# MCF7 = assay: Anti-cancer assay, MTT, LD50; type: cell-based; details: MCF7 breast adenocarcinoma line, MTT, 24 hours with peptide
# Text: as §1
# PC3 = assay: Anti-cancer assay, MTT, LD50; type: cell-based; details: 24 hours with peptide, prostate adenocarcinoma
# Text: as §1
# SW480 = assay: Anti-cancer assay, MTT, LD50; type: cell-based; details: SW480 colon adenocarcinoma line, 24 hours with peptide
# Text: as §1
# [4] = test system: human red blood cells (RBC); assay: in vitro; type: cell-based; details: hemolytic assay, concentration at 50% hemolysis, 1 hour at 37° C.
# WI38 = details: MTT, 24 hours with peptide; for WI38 LD50: normal fibroblast line; for LD50 WI38: WI38 normal lung fibroblast line
# in vitro = details: human, WI38 normal lung fibroblast cells, LD50 WI38, WI38 normal lung fibroblast line, MTT, 24 hours with peptide
Compound,paerug9027 (MIC) [1],staph6538 (MIC) [2],yeast (MIC or MFC) [3],LD50 BMKC (BMKC),H1299 LD50 (H1299),HeLaS3 LD50 (HeLaS3),LD50 MCF7 (MCF7),PC3 LD50 (PC3),LD50 SW480 (SW480),LD50 [4],WI38 LD50 (WI38),CC50 at 24 h (in vitro) [µg/mL],LD50 WI38 (WI38)
FALALKLAKKL-NH2 [P178],100 µg/mL,200 µg/mL,> (> indicates greater than 200 μg/mL),640 µg/mL,> (> indicates greater than 1000),> (> indicates greater than 1000),770 µg/mL,> (> indicates greater than 1000),> (> indicates greater than 1000),> (> indicates greater than 1000),405 µg/mL,405,
FAKLLAKLAKAKA-NH2 [P95],200 µg/mL,100 µg/mL,> (> indicates greater than 200 μg/mL),820 µg/mL,> (> indicates greater than 1000),> (> indicates greater than 1000),> (> indicates greater than 1000),> (> indicates greater than 1000),> (> indicates greater than 1000),> (> indicates greater than 1000),250 µg/mL,250,
"FAKLLAKLAKKFAL-NH2 [P120, FAKLLAKLAKKFAL-NH2]",200 µg/mL,50 µg/mL,200 µg/mL,660 µg/mL,620 µg/mL,810 µg/mL,730 µg/mL,> (> indicates greater than 1000),630 µg/mL,> (> indicates greater than 1000),600 µg/mL,600,
"FAKLA-NH2 [P128, FAKLA-NH2]",100 µg/mL,> (> indicates greater than 200 μg/mL),200 µg/mL,330 µg/mL,> (> indicates greater than 1000),700 µg/mL,500 µg/mL,> (> indicates greater than 1000),530 µg/mL,> (> indicates greater than 1000),500 µg/mL,500,
"FAKLLFKALKKAL-NH2 [P112, FAKLLFKALKKAL-NH2]",200 µg/mL,50 µg/mL,100 µg/mL,445 µg/mL,470 µg/mL,660 µg/mL,500 µg/mL,640 µg/mL,800 µg/mL,> (> indicates greater than 1000),420 µg/mL,420,
"FAKKLAKKLAKAAL-NH2 [P76, FAKKLAKKLAKAAL-NH2]",100 µg/mL,10 µg/mL,200 µg/mL,750 µg/mL,860 µg/mL,380 µg/mL,970 µg/mL,675 µg/mL,400 µg/mL,> (> indicates greater than 1000),445 µg/mL,445,
"FAKLFAKLAKKFAL-NH2 [P121, FAKLFAKLAKKFAL-NH2]",> (> indicates greater than 200 μg/mL),50 µg/mL,100 µg/mL,670 µg/mL,460 µg/mL,830 µg/mL,400 µg/mL,> (> indicates greater than 1000),800 µg/mL,> (> indicates greater than 1000),625 µg/mL,625,
VALALKALKKL-NH2 [P180],> (> indicates greater than 200 μg/mL),200 µg/mL,> (> indicates greater than 200 μg/mL),770 µg/mL,> (> indicates greater than 1000),760 µg/mL,950 µg/mL,> (> indicates greater than 1000),600 µg/mL,> (> indicates greater than 1000),940 µg/mL,940,
"FAKLF-NH2 [P129, FAKLF-NH2]",25 µg/mL,100 µg/mL,100 µg/mL,> (> indicates greater than 1000),790 µg/mL,550 µg/mL,> (> indicates greater than 1000),> (> indicates greater than 1000),550 µg/mL,> (> indicates greater than 1000),> (> indicates greater than 1000),,> (> indicates greater than 1000)
FAKIIAKIAKKI-NH2 [P143],50 µg/mL,100 µg/mL,200 µg/mL,> (> indicates greater than 1000),> (> indicates greater than 1000),> (> indicates greater than 1000),> (> indicates greater than 1000),> (> indicates greater than 1000),> (> indicates greater than 1000),> (> indicates greater than 1000),> (> indicates greater than 1000),,> (> indicates greater than 1000)
"CC(C)C[C@H](NC(=O)[C@H](C)NC(=O)[C@@H](N)Cc1ccccc1)C(=O)N[C@@H](C)C(N)=O [P183, FALA-NH2] (H-FALA-NH2; N-terminus assumed)",100 µg/mL,200 µg/mL,200 µg/mL,> (> indicates greater than 1000),> (> indicates greater than 1000),> (> indicates greater than 1000),> (> indicates greater than 1000),> (> indicates greater than 1000),> (> indicates greater than 1000),> (> indicates greater than 1000),> (> indicates greater than 1000),,> (> indicates greater than 1000)
FALKALKK-NH2 [P145],100 µg/mL,200 µg/mL,200 µg/mL,> (> indicates greater than 1000),> (> indicates greater than 1000),240 µg/mL,> (> indicates greater than 1000),> (> indicates greater than 1000),> (> indicates greater than 1000),> (> indicates greater than 1000),> (> indicates greater than 1000),,> (> indicates greater than 1000)
"KAKLF-NH2 [P130, KAKLF-NH2]",200 µg/mL,200 µg/mL,200 µg/mL,> (> indicates greater than 1000),> (> indicates greater than 1000),> (> indicates greater than 1000),> (> indicates greater than 1000),> (> indicates greater than 1000),> (> indicates greater than 1000),> (> indicates greater than 1000),> (> indicates greater than 1000),,> (> indicates greater than 1000)
FAKKLAKLAKKL-NH2 [P106],25 µg/mL,100 µg/mL,100 µg/mL,690 µg/mL,920 µg/mL,700 µg/mL,620 µg/mL,> (> indicates greater than 1000),570 µg/mL,> (> indicates greater than 1000),> (> indicates greater than 1000),,> (> indicates greater than 1000)
FAKLLAKLAKAKG-NH2 [P96],> (> indicates greater than 200 μg/mL),> (> indicates greater than 200 μg/mL),> (> indicates greater than 200 μg/mL),> (> indicates greater than 1000),> (> indicates greater than 1000),> (> indicates greater than 1000),> (> indicates greater than 1000),> (> indicates greater than 1000),> (> indicates greater than 1000),> (> indicates greater than 1000),> (> indicates greater than 1000),,> (> indicates greater than 1000)
